Assay [1] deals with T1, pSer33/S37A β-catenin peptide binding to β-TrCP (Homo sapiens, UniProt P35222+Q9Y297, S37A).
T1 construct: titrating BODIPY-FL-labeled β-catenin peptides (residues 17-48) against 300 pM β-TrCP; 6xHis-SMT3 (N, cleaved yes); made in house; host or cells: E. coli (co-expressed with BirA)
As to the kind of experiment: TR-FRET binding enhancement assay, pSer33/S37A peptide. As to the method:
(§1) Compounds were incubated in a 20 μl reaction volume with 300 pM biotinylated β-TrCP/Skp1 preincubated with 1.2 nM terbium-coupled streptavidin (Cisbio) and BODIPY-FL labeled β-catenin peptides (see figure legends for peptide details) in a white 384-well microplate (Perkin Elmer ProxiPlate), using a PBS buffer containing 0.01% Triton X-100 and 2 mM DTT with 2% final DMSO. […] Following 1-h incubation, plates were read for TR-FRET signal after excitation at 320 nm and read at 520 and 620 nm using an EnVision plate reader (Perkin Elmer). TR-FRET signal was calculated using a 520/620 nm ratio. Binding and enhancement data were fit to a standard Hill equation (Y = Bmin + (Bmax − Bmin)(X^h)/(X^h + EC50^h)) in Prism (GraphPad). Errors are standard error of the fit.
On the technique in general: In TR-FRET formats the signal depends on donor and acceptor labels being close together.

Assay [2] deals with T2, pSer33/Ser37 β-catenin peptide ubiquitylation by SCFβ-TrCP (Homo sapiens, UniProt P35222+Q9Y297).
T2 construct: fluorescently-labeled β-catenin peptide (residues 17–60) were ubiquitylated; 6xHis-SMT3 (N, cleaved yes); made in house; host or cells: E. coli (β-TrCP1/Skp1); E. coli or SF9 (Cul1-Rbx1)
T2 sequence (Q9Y297 1-569 isoform Q9Y297-2): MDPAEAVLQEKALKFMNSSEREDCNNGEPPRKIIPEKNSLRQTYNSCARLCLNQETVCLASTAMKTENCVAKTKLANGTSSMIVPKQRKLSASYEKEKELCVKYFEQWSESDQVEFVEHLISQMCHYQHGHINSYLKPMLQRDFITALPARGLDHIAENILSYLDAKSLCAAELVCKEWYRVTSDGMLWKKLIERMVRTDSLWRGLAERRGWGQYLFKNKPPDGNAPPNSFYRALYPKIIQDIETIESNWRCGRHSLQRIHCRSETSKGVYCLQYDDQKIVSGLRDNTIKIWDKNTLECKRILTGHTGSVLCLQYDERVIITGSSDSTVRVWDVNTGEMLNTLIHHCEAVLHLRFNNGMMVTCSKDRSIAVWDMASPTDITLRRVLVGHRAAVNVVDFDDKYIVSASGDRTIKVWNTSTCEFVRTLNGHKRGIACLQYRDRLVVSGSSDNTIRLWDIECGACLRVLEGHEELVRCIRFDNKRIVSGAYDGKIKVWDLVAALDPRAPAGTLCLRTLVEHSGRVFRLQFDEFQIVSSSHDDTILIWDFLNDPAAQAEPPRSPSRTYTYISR
T2 sequence (P63208 whole entry partner, the tested form may be a part): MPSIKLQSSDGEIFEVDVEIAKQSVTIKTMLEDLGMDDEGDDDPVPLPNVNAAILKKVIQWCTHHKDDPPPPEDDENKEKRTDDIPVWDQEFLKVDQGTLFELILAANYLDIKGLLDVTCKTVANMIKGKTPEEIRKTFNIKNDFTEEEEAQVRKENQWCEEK
T2 sequence (Q13616 whole entry partner, the tested form may be a part): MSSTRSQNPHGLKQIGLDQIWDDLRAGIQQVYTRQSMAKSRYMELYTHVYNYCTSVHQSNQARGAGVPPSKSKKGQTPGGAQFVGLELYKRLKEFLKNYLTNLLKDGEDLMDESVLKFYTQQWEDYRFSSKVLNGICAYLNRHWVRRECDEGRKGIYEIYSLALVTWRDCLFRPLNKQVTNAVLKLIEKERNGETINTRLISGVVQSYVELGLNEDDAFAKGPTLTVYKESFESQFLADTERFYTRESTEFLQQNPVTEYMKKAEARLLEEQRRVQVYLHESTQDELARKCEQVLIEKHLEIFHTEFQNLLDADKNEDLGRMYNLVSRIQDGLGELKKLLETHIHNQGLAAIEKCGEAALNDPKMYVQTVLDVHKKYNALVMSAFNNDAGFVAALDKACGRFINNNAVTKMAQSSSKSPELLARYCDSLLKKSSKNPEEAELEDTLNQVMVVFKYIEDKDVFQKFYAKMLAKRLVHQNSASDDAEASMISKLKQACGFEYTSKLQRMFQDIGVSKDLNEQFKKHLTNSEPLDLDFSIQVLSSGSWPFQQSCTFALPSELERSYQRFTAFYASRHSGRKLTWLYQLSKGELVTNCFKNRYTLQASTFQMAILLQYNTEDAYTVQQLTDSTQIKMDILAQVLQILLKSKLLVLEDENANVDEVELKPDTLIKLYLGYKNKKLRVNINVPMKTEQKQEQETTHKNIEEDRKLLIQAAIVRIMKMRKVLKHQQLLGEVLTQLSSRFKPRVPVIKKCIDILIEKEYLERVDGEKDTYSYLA
T2 sequence (P62877 whole entry partner, the tested form may be a part): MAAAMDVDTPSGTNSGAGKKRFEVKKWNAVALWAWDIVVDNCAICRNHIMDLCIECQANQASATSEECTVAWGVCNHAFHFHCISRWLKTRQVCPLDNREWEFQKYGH
T2 sequence (Q15843 1-76 partner limits assumed): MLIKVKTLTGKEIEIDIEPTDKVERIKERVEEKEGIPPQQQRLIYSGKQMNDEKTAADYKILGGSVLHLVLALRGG
T2 sequence (P35222 17-60 limits assumed): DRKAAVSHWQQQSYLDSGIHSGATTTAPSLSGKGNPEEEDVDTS
As to the kind of experiment: In vitro ubiquitylation of pSer33/Ser37 β-catenin peptide. In kind it is biochemical. How it is done:
(§2) Four micromolar of fluorescently-labeled β-catenin peptide (residues 17–60) were ubiquitylated in a buffer containing 25 mM Tris Cl (pH 7.5), 50 mM NaCl, 5 mM MgCl2, 2 mM ATP, and 1 mM DTT at room temperature in the presence of 62.5 μM Ubiquitin, 125 nM Ube1, 1.75 μM Cdc34A, and 100 nM neddylated SCF^β-TrCP in the presence or absence of compound (as indicated). Typically, individual reaction mixes with either Ubiquitin, Ube1 and Cdc34A or β-catenin, SCF^β-TrCP and compound were preincubated and subsequently mixed to initiate β-catenin ubiquitylation. Reactions were quenched by SDS loading buffer, resolved by SDS-PAGE and imaged for fluorescence. For full length β-catenin protein ubiquitylation 400 nM β-catenin and 400 nM SCF^β-TrCP were used instead.

The target in assay [3] is T3, pSer33/Ser37 β-catenin:β-TrCP interaction (Homo sapiens, UniProt P35222+Q9Y297).
T3 construct: titrating BODIPY-FL-labeled β-catenin peptides (residues 17-48) against 300 pM β-TrCP; 6xHis-SMT3 (N, cleaved yes); made in house; host or cells: E. coli (co-expressed with BirA)
T3 sequence (Q9Y297 1-569 isoform Q9Y297-2): as the sequence (Q9Y297 1-569 isoform Q9Y297-2) above
T3 sequence (P63208 whole entry partner, the tested form may be a part): as the sequence (P63208 whole entry partner, the tested form may be a part) above
T3 sequence (P35222 17-48 limits assumed): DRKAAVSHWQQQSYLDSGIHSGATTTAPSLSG
As to the kind of experiment: TR-FRET binding enhancement assay, pSer33/Ser37 peptide. As to the method:
as §1

The target of assay [4] is T4, pSer33/Ser37 β-catenin peptide binding to β-TrCP (Homo sapiens, UniProt P35222+Q9Y297).
T4 construct: titrating BODIPY-FL-labeled β-catenin peptides (residues 17-48) against 300 pM β-TrCP; 6xHis-SMT3 (N, cleaved yes); made in house; host or cells: E. coli (co-expressed with BirA)
T4 sequence (Q9Y297 1-569 isoform Q9Y297-2): as the sequence (Q9Y297 1-569 isoform Q9Y297-2) above
T4 sequence (P63208 whole entry partner, the tested form may be a part): as the sequence (P63208 whole entry partner, the tested form may be a part) above
T4 sequence (P35222 17-48 limits assumed): as the sequence (P35222 17-48 limits assumed) above
As to the kind of experiment: TR-FRET peptide binding and cooperativity assay, pSer33/Ser37 peptide. The conditions noted are these: ratio of peptide KD without and with saturating enhancer; pSer33/Ser37. As to the method:
as §1

The target in assay [5] is T5, S33E/S37A β-catenin peptide ubiquitylation by SCFβ-TrCP (Homo sapiens, UniProt P35222+Q9Y297, S33E/S37A).
T5 construct: fluorescently-labeled S33E/S37A β-catenin peptide (residues 17–60) was ubiquitylated; 6xHis-SMT3 (N, cleaved yes); made in house; host or cells: E. coli (β-TrCP1/Skp1); E. coli or SF9 (Cul1-Rbx1)
As to the kind of experiment: In vitro ubiquitylation of S33E/S37A β-catenin peptide. In kind it is biochemical. The conditions noted are these: 20 μM compound. How it is done: as §2

Assay [6] addresses T6, full-length S33E/S37A β-catenin protein ubiquitylation by SCFβ-TrCP (Homo sapiens, UniProt P35222+Q9Y297, S33E/S37A).
T6 construct: 6xHis-SMT3 (N, cleaved yes); host or cells: HEK293T (β-catenin); E. coli (β-TrCP1/Skp1); E. coli or SF9 (Cul1-Rbx1)
As to the kind of experiment: In vitro ubiquitylation of full-length S33E/S37A β-catenin protein. The conditions noted are these: 20 μM compound. Type of assay: biochemical. As to the method:
as §2

Assay [7] has as its target T7, pSer33/S37A β-catenin peptide ubiquitylation by SCFβ-TrCP (Homo sapiens, UniProt P35222+Q9Y297, S37A).
T7 construct: fluorescently-labeled β-catenin peptide (residues 17–60; as indicated) was ubiquitylated; 6xHis-SMT3 (N, cleaved yes); made in house; host or cells: E. coli (β-TrCP1/Skp1); E. coli or SF9 (Cul1-Rbx1)
As to the kind of experiment: In vitro ubiquitylation of pSer33/S37A β-catenin peptide. Type of assay: biochemical. How it is done:
as §2

Assay [8] deals with T8, S33E/S37A β-catenin peptide binding to β-TrCP (Homo sapiens, UniProt P35222+Q9Y297, S33E/S37A).
T8 construct: titrating BODIPY-FL-labeled β-catenin peptides (residues 17-48) against 300 pM β-TrCP; 6xHis-SMT3 (N, cleaved yes); made in house; host or cells: E. coli (co-expressed with BirA)
T8 sequence (Q9Y297 1-569 isoform Q9Y297-2, stated change not applied, one chain of several): as the sequence (Q9Y297 1-569 isoform Q9Y297-2) above
T8 sequence (P63208 whole entry partner, one chain of several, the tested form may be a part): as the sequence (P63208 whole entry partner, the tested form may be a part) above
As to the kind of experiment: TR-FRET peptide binding assay, S33E/S37A peptide. The conditions noted are these: read-out: binding affinity of S33E/S37A peptide. How it is done: as §1

Assay [9] deals with T1, pSer33/S37A β-catenin peptide binding to β-TrCP. As to the kind of experiment: TR-FRET peptide binding and cooperativity assay, pSer33/S37A peptide. How it is done:
as §1

The target of assay [10] is T8, S33E/S37A β-catenin peptide binding to β-TrCP. As to the kind of experiment: TR-FRET binding enhancement assay, S33E/S37A peptide. The conditions noted are these: 1% binding saturation. How it is done: as §1
The target of a further assay is T9, β-TrCP (Homo sapiens, UniProt Q9Y297).
T9 construct: 6xHis-SMT3 (N, cleaved yes); made in house; host or cells: E. coli (co-expressed with BirA)
As to the kind of experiment: TR-FRET peptide binding in absence of compound. How it is done: as §1

Where no end group is shown, it is not given here.

Here are results for three compounds from article PMC6441019, “Prospective discovery of small molecule enhancers of an E3 ligase-substrate interaction” (Nature Communications, 2019).

T1 sequence (Q9Y297 1-569 isoform Q9Y297-2, stated change not applied): as the sequence (Q9Y297 1-569 isoform Q9Y297-2) above
T1 sequence (P63208 whole entry partner, the tested form may be a part): as the sequence (P63208 whole entry partner, the tested form may be a part) above
T1 sequence (P35222 17-48 S37A limits assumed): as the sequence (P35222 17-48 limits assumed) above, with S21A counted along it

The term EC50 denotes the concentration that produces a half-maximal response. As to `O=C(O)c1cccc(NC(=O)c2c(Oc3ccccc3)cc(C(F)(F)F)[nH]c2=O)c1` [NRX-2663], the concentration giving a half-maximal response (EC50) in [1] came to 22.9 ± 1.4 µM; in assay [3], 80 ± 4 µM. The “ligand concentration at which ubiquitin chain formation resembles WT pSer33/pSer37 peptide” value in assay [2] was no less than 16 μM. The “enhancement of ubiquitylation of pSer33/Ser37 β-catenin peptide” value in assay [2] (peptide residues 17–60) is “markedly enhances”. The cooperativity of binding in [4] was found to be 13 fold.

`O=C(O)c1cccc(NC(=O)c2c(Sc3c(Cl)cccc3Cl)cc(C(F)(F)F)[nH]c2=O)c1` [NRX-103094]: in [5], the “ubiquitylation of S33E/S37A β-catenin peptide” value was “robust time-dependent ubiquitylation”. In addition, the “ubiquitylation of full-length S33E/S37A β-catenin protein” value in [6] is on record as “strongly ubiquitylated”. Besides, in [7], the “concentration giving ubiquitylation greater than WT pSer33/pSer37 levels” value came out at 250 nM. Besides, the Kd in assay [8] stood at 0.022 µM. Further, the “cooperativity of peptide binding to β-TrCP” value in assay [9] came out at 1000 fold. Further, the EC50 in assay [10] came to 3.9 ± 0.1 µM.

As for “Ac-CDRKAAVSHWQQQSYLDEGIHAGATTTAPSLSG [S33E/S37A]”, the “decrease in binding affinity relative to pSer33/S37A peptide” value on β-TrCP is given as greater than 10 fold.
